# Results taken from the Kinase Knowledgebase extract (Sharma et al. 2016).
# pIC50: −log10 of the molar value.
# Target: PIK3CG (human) (UniProt P48736)
# Assay: Assessment of PIK3CG Kinase Activity
# PIK3CG (human), sequence (P48736 whole entry, looked up): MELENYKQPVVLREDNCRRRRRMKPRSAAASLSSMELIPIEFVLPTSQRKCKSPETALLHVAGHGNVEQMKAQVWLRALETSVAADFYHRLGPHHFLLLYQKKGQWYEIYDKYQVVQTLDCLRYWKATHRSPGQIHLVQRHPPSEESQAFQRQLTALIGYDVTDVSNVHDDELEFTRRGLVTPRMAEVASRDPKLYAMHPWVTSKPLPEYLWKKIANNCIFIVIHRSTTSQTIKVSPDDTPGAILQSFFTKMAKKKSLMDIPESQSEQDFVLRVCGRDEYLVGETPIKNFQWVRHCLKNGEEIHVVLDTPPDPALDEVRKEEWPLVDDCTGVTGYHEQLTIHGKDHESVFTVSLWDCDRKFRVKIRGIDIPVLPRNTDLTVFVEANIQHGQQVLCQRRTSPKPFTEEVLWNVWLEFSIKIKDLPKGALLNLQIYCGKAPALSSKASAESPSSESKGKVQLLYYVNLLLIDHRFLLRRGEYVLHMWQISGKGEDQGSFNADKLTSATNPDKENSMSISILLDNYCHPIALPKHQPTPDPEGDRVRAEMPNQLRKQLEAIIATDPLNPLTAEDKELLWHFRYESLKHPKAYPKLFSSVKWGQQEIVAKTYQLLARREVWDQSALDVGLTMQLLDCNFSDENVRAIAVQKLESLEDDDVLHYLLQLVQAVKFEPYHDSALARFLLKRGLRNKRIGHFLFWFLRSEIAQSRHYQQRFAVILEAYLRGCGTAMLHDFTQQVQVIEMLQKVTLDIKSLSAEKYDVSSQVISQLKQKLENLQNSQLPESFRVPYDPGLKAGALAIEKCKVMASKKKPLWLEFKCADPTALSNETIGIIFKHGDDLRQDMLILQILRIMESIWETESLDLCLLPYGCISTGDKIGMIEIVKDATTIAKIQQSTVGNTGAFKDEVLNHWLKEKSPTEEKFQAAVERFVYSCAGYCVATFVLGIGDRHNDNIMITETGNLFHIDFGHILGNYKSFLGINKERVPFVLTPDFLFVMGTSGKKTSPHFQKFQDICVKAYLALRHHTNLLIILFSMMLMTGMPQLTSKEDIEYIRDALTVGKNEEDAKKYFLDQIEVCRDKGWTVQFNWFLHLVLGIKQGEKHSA
row,pIC50,SMILES
1,> 6.10,CC(C)(C)OC(=O)N1CCC[C@H]1CNC(=O)Nc1nc2c(s1)-c1nc(-c3ccccc3Cl)ncc1CC2
2,> 6.10,O=C(Nc1nc2c(s1)-c1nc(-c3ccccc3Cl)ncc1CC2)N1CC[C@@H](NC(=O)N2CCCC2)C1
3,> 6.10,CN(C)C(=O)c1cccc(CNC(=O)Nc2nc3c(s2)-c2nc(-c4ccccc4Cl)ncc2CC3)c1
4,> 6.10,CNC(=O)Nc1cccc(CNC(=O)Nc2nc3c(s2)-c2nc(-c4ccccc4Cl)ncc2CC3)c1
5,> 6.10,CCN1CCC[C@@H]1CNC(=O)Nc1nc2c(s1)-c1nc(-c3ccccc3Cl)ncc1CC2
6,> 6.10,O=C(NCc1cccc(C(=O)NC2CCCCC2)c1)Nc1nc2c(s1)-c1nc(-c3ccccc3Cl)ncc1CC2
7,> 6.10,O=C(Nc1nc2c(s1)-c1nc(-c3ccccc3Cl)ncc1CC2)N1CCC(NC(=O)C(F)(F)F)C1 (configuration not stated)
8,> 6.10,O=C(NC[C@@H]1CCCN1)Nc1nc2c(s1)-c1nc(-c3ccccc3Cl)ncc1CC2
9,> 6.10,CC(C)OC(=O)N[C@H]1CCN(C(=O)Nc2nc3c(s2)-c2nc(-c4ccccc4Cl)ncc2CC3)C1
10,> 6.10,O=C(CCNC(=O)Nc1nc2c(s1)-c1nc(-c3ccccc3Cl)ncc1CC2)NCC1CC1
11,> 6.10,O=C(NCc1cccs1)Nc1nc2c(s1)-c1nc(-c3ccccc3Cl)ncc1CC2
12,> 6.10,O=C(NCc1cccc(OC(F)(F)F)c1)Nc1nc2c(s1)-c1nc(-c3ccccc3Cl)ncc1CC2
13,> 6.10,CCNC(=O)Nc1nc2c(s1)-c1nc(-c3ccccc3F)ncc1CC2
14,> 6.10,CN(C)S(=O)(=O)N[C@H]1CCN(C(=O)Nc2nc3c(s2)-c2nc(-c4ccccc4Cl)ncc2CC3)C1
15,> 6.10,CNC(=O)CCNC(=O)Nc1nc2c(s1)-c1nc(-c3ccccc3Cl)ncc1CC2
16,> 6.10,NC(=O)c1cccc(CNC(=O)Nc2nc3c(s2)-c2nc(-c4ccccc4Cl)ncc2CC3)c1
17,> 6.10,COc1cccc(CNC(=O)Nc2nc3c(s2)-c2nc(-c4ccccc4Cl)ncc2CC3)c1OC
18,> 6.10,O=C(NCc1cccc(C(F)(F)F)c1)Nc1nc2c(s1)-c1nc(-c3ccccc3Cl)ncc1CC2
19,> 6.10,CC(C)CNC(=O)Nc1nc2c(s1)-c1nc(-c3cccc(F)c3Cl)ncc1CC2
20,> 6.10,COc1cccc(CCNC(=O)Nc2nc3c(s2)-c2nc(-c4ccccc4Cl)ncc2CC3)c1OC
21,> 6.10,CN(C)C(=O)Nc1nc2c(s1)-c1nc(-c3ccccc3F)ncc1CC2
22,> 6.10,O=C(NCc1ccc2cc[nH]c2c1)Nc1nc2c(s1)-c1nc(-c3ccccc3Cl)ncc1CC2
23,> 6.10,O=C(NC[C@@H]1CCCN1C(=O)OCc1ccccc1)Nc1nc2c(s1)-c1nc(-c3ccccc3Cl)ncc1CC2

row,pIC50,SMILES
1,> 6.10,O=C(CCNC(=O)Nc1nc2c(s1)-c1nc(-c3ccccc3Cl)ncc1CC2)NC1CC1
2,> 6.10,CC(C)N(C)C(=O)Nc1cccc(CNC(=O)Nc2nc3c(s2)-c2nc(-c4ccccc4Cl)ncc2CC3)c1
3,> 6.10,O=C(Nc1nc2c(s1)-c1nc(-c3ccccc3Cl)ncc1CC2)N1CCCC(C(O)c2ccccc2)C1 (configuration not stated)
4,> 6.10,CCOC(=O)CCNC(=O)Nc1nc2c(s1)-c1nc(-c3ccccc3Cl)ncc1CC2
5,> 6.10,CN(C)CCN(C)C(=O)Nc1nc2c(s1)-c1nc(-c3ccccc3Cl)ncc1CC2
6,> 6.10,O=C(NCCc1cccnc1)Nc1nc2c(s1)-c1nc(-c3ccccc3Cl)ncc1CC2
7,> 6.10,COc1cccc(CNC(=O)Nc2nc3c(s2)-c2nc(-c4ccccc4Cl)ncc2CC3)c1
8,> 6.10,CCc1nnc(CCNC(=O)Nc2nc3c(s2)-c2nc(-c4ccccc4Br)ncc2CC3)o1
9,> 6.10,CC(C)(C)OCCNC(=O)Nc1nc2c(s1)-c1nc(-c3ccccc3Cl)ncc1CC2
10,> 6.10,CCc1nnc(CCNC(=O)Nc2nc3c(s2)-c2nc(-c4ccccc4F)ncc2CC3)o1
11,> 6.10,CCn1cnc(CCNC(=O)Nc2nc3c(s2)-c2nc(-c4ccccc4Cl)ncc2CC3)c1
12,> 6.10,O=C(NCCCN1CCNC1=O)Nc1nc2c(s1)-c1nc(-c3ccccc3Cl)ncc1CC2
13,> 6.10,CC(C)N(C)C(=O)N[C@H]1CCN(C(=O)Nc2nc3c(s2)-c2nc(-c4ccccc4Cl)ncc2CC3)C1
14,> 6.10,O=C(CC1CC1)N[C@H]1CCN(C(=O)Nc2nc3c(s2)-c2nc(-c4ccccc4Cl)ncc2CC3)C1
15,> 6.10,CC(C)(C)OC(=O)N1CCN(c2cccc(NC(=O)Nc3nc4c(s3)-c3nc(-c5ccccc5Cl)ncc3CC4)c2)CC1
16,> 6.10,CC(C)(CNc1ccc(C(C)(C)C)cc1)NC(=O)Nc1nc2c(s1)-c1nc(-c3ccccc3Cl)ncc1CC2
17,> 6.10,CN(C)C(=O)Nc1nc2c(s1)-c1nc(-c3ccccc3Br)ncc1CC2
18,> 6.10,O=C(NCCC(=O)N1CCCC1)Nc1nc2c(s1)-c1nc(-c3ccccc3Cl)ncc1CC2
19,> 6.10,CNC(=O)Nc1nc2c(s1)-c1nc(-c3ccccc3Cl)ncc1CC2
20,> 6.10,CC(C)N(C)C(=O)c1cccc(CNC(=O)Nc2nc3c(s2)-c2nc(-c4ccccc4Cl)ncc2CC3)c1
21,> 6.10,Cc1nn(C)cc1CNC(=O)Nc1nc2c(s1)-c1nc(-c3ccccc3Cl)ncc1CC2
22,> 6.10,O=C(NCCc1ccncc1)Nc1nc2c(s1)-c1nc(-c3ccccc3Cl)ncc1CC2
23,> 6.10,O=C(NCC1CCCN(c2ncccn2)C1)Nc1nc2c(s1)-c1nc(-c3ccccc3Cl)ncc1CC2 (configuration not stated)

row,pIC50,SMILES
1,> 6.10,COC(=O)N[C@H]1CCN(C(=O)Nc2nc3c(s2)-c2nc(-c4ccccc4Cl)ncc2CC3)C1
2,> 6.10,Cn1cc(CCNC(=O)Nc2nc3c(s2)-c2nc(-c4ccccc4Cl)ncc2CC3)cn1
3,> 6.10,O=C(Nc1nc2c(s1)-c1nc(-c3ccccc3Cl)ncc1CC2)N1CCC(N2CCNC2=O)CC1
4,> 6.10,CN(C)C(=O)Nc1nc2c(s1)-c1nc(-c3ccccc3C(F)(F)F)ncc1CC2
5,> 6.10,CC(C)CC(=O)Nc1cccc(CNC(=O)Nc2nc3c(s2)-c2nc(-c4ccccc4Cl)ncc2CC3)c1
6,> 6.10,O=C(NCCN1CCOCC1)Nc1nc2c(s1)-c1nc(-c3ccccc3Cl)ncc1CC2
7,> 6.10,CN(C)C(=O)N[C@H]1CCN(C(=O)Nc2nc3c(s2)-c2nc(-c4ccccc4Cl)ncc2CC3)C1
8,> 6.10,CC(C)NC(=O)Nc1nc2c(s1)-c1nc(-c3ccccc3Cl)ncc1CC2
9,> 6.10,NC(=O)Nc1nc2c(s1)-c1nc(-c3ccccc3F)ncc1CC2
10,> 6.10,O=C(NCc1cccc(NC(=O)N2CCCC2)c1)Nc1nc2c(s1)-c1nc(-c3ccccc3Cl)ncc1CC2
11,> 6.10,O=C(NCCC(=O)N1CCOCC1)Nc1nc2c(s1)-c1nc(-c3ccccc3Cl)ncc1CC2
12,> 6.10,O=C(Nc1nc2c(s1)-c1nc(-c3ccccc3Cl)ncc1CC2)N1CCC(CN2CCc3ccccc3C2=O)C1 (configuration not stated)
13,> 6.10,CC(C)NC(=O)CCNC(=O)Nc1nc2c(s1)-c1nc(-c3ccccc3Cl)ncc1CC2
14,> 6.10,CN(C)CCNC(=O)Nc1nc2c(s1)-c1nc(-c3ccccc3Cl)ncc1CC2
15,> 6.10,O=C(Nc1nc2c(s1)-c1nc(-c3ccccc3Cl)ncc1CC2)N1CCOCC1
16,> 6.10,O=C(Nc1nc2c(s1)-c1nc(-c3ccccc3Cl)ncc1CC2)N1CCC2(CC1)C(=O)NCN2c1ccccc1
17,> 6.10,CC(C)(C)OC(=O)NCc1cccc(CNC(=O)Nc2nc3c(s2)-c2nc(-c4ccccc4Cl)ncc2CC3)c1
18,> 6.10,CCOCCNC(=O)Nc1nc2c(s1)-c1nc(-c3ccccc3Cl)ncc1CC2
19,> 6.10,COC(=O)N[C@@H]1CCN(C(=O)Nc2nc3c(s2)-c2nc(-c4ccccc4Cl)ncc2CC3)C1
20,> 6.10,Cn1cc(CNC(=O)Nc2nc3c(s2)-c2nc(-c4ccccc4F)ncc2CC3)cn1
21,> 6.10,CC(C)CNC(=O)N[C@H]1CCN(C(=O)Nc2nc3c(s2)-c2nc(-c4ccccc4Cl)ncc2CC3)C1
22,> 6.10,CCn1ccc(CNC(=O)Nc2nc3c(s2)-c2nc(-c4ccccc4Cl)ncc2CC3)n1
23,> 6.10,COc1ccccc1C1CCN(C(=O)Nc2nc3c(s2)-c2nc(-c4ccccc4Cl)ncc2CC3)C1 (configuration not stated)

row,pIC50,SMILES
1,> 6.10,CC(C)c1noc(CCNC(=O)Nc2nc3c(s2)-c2nc(-c4ccccc4Cl)ncc2CC3)n1
2,> 6.10,CCc1cnc(CCNC(=O)Nc2nc3c(s2)-c2nc(-c4ccccc4F)ncc2CC3)o1
3,> 6.10,O=C(NCc1cc(C2CC2)n[nH]1)Nc1nc2c(s1)-c1nc(-c3ccccc3C(F)(F)F)ncc1CC2
4,> 6.10,CC(C)C(=O)N[C@H]1CCN(C(=O)Nc2nc3c(s2)-c2nc(-c4ccccc4Cl)ncc2CC3)C1
5,> 6.10,CCN(CC)CCNC(=O)Nc1nc2c(s1)-c1nc(-c3ccccc3Cl)ncc1CC2
6,> 6.10,CN(C)Cc1cccc(CNC(=O)Nc2nc3c(s2)-c2nc(-c4ccccc4Cl)ncc2CC3)c1
7,> 6.10,CC(C)OCCCNC(=O)Nc1nc2c(s1)-c1nc(-c3ccccc3Cl)ncc1CC2
8,> 6.10,CCNC(=O)CCNC(=O)Nc1nc2c(s1)-c1nc(-c3ccccc3Cl)ncc1CC2
9,> 6.10,CN(C)CCCCNC(=O)Nc1nc2c(s1)-c1nc(-c3ccccc3Cl)ncc1CC2
10,> 6.10,CCc1noc(CCNC(=O)Nc2nc3c(s2)-c2nc(-c4ccccc4Cl)ncc2CC3)n1
11,> 6.10,Nc1cccc(CNC(=O)Nc2nc3c(s2)-c2nc(-c4ccccc4Cl)ncc2CC3)c1
12,> 6.10,Cn1cc(CNC(=O)Nc2nc3c(s2)-c2nc(-c4cccc(F)c4Cl)ncc2CC3)cn1
13,> 6.10,O=C(NCc1cccc(N2CCCC2=O)c1)Nc1nc2c(s1)-c1nc(-c3ccccc3Cl)ncc1CC2
14,> 6.10,CCc1csc(CCNC(=O)Nc2nc3c(s2)-c2nc(-c4ccccc4F)ncc2CC3)n1
15,> 6.10,Nc1c(Br)cc(OCC2CCN(C(=O)Nc3nc4c(s3)-c3nc(-c5ccccc5Cl)ncc3CC4)C2)cc1Br (configuration not stated)
16,> 6.10,CCNC(=O)Nc1nc2c(s1)-c1nc(-c3ccccc3Br)ncc1CC2
17,> 6.10,O=C(NCCc1ccc2c(c1)OCO2)Nc1nc2c(s1)-c1nc(-c3ccccc3Cl)ncc1CC2
18,> 6.10,O=C(Nc1nc2c(s1)-c1nc(-c3ccccc3Cl)ncc1CC2)N1CC[C@H](NS(=O)(=O)N2CCOCC2)C1
19,> 6.10,CC(C)CN(C)C(=O)CCNC(=O)Nc1nc2c(s1)-c1nc(-c3ccccc3Cl)ncc1CC2
20,> 6.10,O=C(Nc1nc2c(s1)-c1nc(-c3ccccc3Cl)ncc1CC2)NC1CCC(N2CCNC2=O)CC1 (configuration not stated)
21,> 6.10,CCCn1ccc(CNC(=O)Nc2nc3c(s2)-c2nc(-c4ccccc4Cl)ncc2CC3)n1
22,> 6.10,CN1CCN(C(=O)N[C@H]2CCN(C(=O)Nc3nc4c(s3)-c3nc(-c5ccccc5Cl)ncc3CC4)C2)CC1
23,> 6.10,CC(C)(C)OC(=O)Nc1cccc(CNC(=O)Nc2nc3c(s2)-c2nc(-c4ccccc4Cl)ncc2CC3)c1
